What all share (assay): relative viability (nuclei count vs DMSO), 5 days (fraction); higher = more cells survive
Compound in assay [1]: C1/C(=C\C2=CC=CS2)/C(=O)/C(=C/C3=CC=CS3)/C1 + O=C(CCCCCCC(=O)Nc1ccccc1)NO [Vorinostat] (partner 1 µM)
The procedure, abridged:
(§1)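 Nuclei were stained with Hoechst during a one-step fixation (final 0.05% Triton X-100, 1% formaldehyde, 1 ug/ml Hoechst) carried out 5 days after dosing, then counted on 4× images. The cells, lung cancer lines in 1536-well plates, had been dosed by pin tool the day after seeding with one drug alone or a fixed anchor-drug dose plus five library-drug doses (not always all listed) in √10 steps. Relative viability is the nuclei count in treated wells divided by that in vehicle wells, and each value is the median of duplicate plates.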

Compound in the assay “TPCA-1 + Bortezomib”: C1=CC(=CC=C1C2=CC(=C(S2)NC(=O)N)C(=O)N)F [TPCA-1] + CC(C)C[C@H](NC(=O)[C@H](Cc1ccccc1)NC(=O)c1cnccn1)B(O)O [Bortezomib] (partner 0.002 µM)
The procedure, abridged:
as §1

Compound in the assay “TPCA-1 + Dasatinib”: C1=CC(=CC=C1C2=CC(=C(S2)NC(=O)N)C(=O)N)F [TPCA-1] + Cc1nc(Nc2ncc(C(=O)Nc3c(C)cccc3Cl)s2)cc(N2CCN(CCO)CC2)n1 [Dasatinib] (partner 0.075 µM)
Put shortly:
as §1

Compound in assay [2]: C[C@]12O[C@H](C[C@]1(O)CO)n1c3ccccc3c3c4c(c5c6ccccc6n2c5c31)CNC4=O [Lestaurtinib] + N=C(N)NC(=N)NCCc1ccccc1 [Phenformin] (partner 250 µM)
Put shortly:
as §1

Regarding UMC-11, the relative viability in assay [1] (first compound 0.2 µM) turned out to be 0.361; in assay [1] (first compound 0.6325 µM), 0.36; in assay [1] (first compound 2 µM) it was 0.43; in assay [1] (first compound 6.325 µM) it was 0.26; in assay [1] (first compound 20 µM), 0.394; with TPCA-1 + Bortezomib (first compound 0.04 µM), 0.663. The relative viability with TPCA-1 + Bortezomib (first compound 0.1265 µM) stood at 0.667; with TPCA-1 + Bortezomib (first compound 0.4 µM) it was 0.798; with TPCA-1 + Bortezomib (first compound 1.265 µM), 0.735; with TPCA-1 + Bortezomib (first compound 4 µM), 0.134; with TPCA-1 + Dasatinib (first compound 0.04 µM) it was 0.494; with TPCA-1 + Dasatinib (first compound 0.1265 µM) it was 0.443. Also, the relative viability was 0.494 with TPCA-1 + Dasatinib (first compound 0.4 µM); 0.457 in the assay with TPCA-1 + Dasatinib (first compound 1.265 µM); 0.222 with TPCA-1 + Dasatinib (first compound 4 µM); 0.359 in assay [2] (first compound 0.005 µM); 0.327 in assay [2] (first compound 0.01581 µM); 0.239 in assay [2] (first compound 0.05 µM). Also, the relative viability turned out to be 0.176 in assay [2] (first compound 0.1581 µM) and 0.144 in assay [2] (first compound 0.5 µM).

These data come from the supplement of paper PMC10307832.
